Source: US10227344B2, “CK2 inhibitors, compositions and methods thereof” (Polaris Pharmaceuticals, Inc., priority 2016, dated 2019)

Columns and labels:
Assay type in all cases: cell-based
[1] = tested on: Caki-2; test: Cancer cell panel, cell viability (resazurin): Renal, Caki-2; settings: Caki-2 (Renal), 72 hours; labelled drug combined with Example 3
Procedure: (§1) Cells were plated in 96-well plates and treated for 72 hours with a serially diluted CK2 inhibitor or anti-cancer drug or their combination. The suspension cell lines were treated right after plating, while the adherent cells were allowed to attach overnight prior to the start of the treatment.
(§2) Cell viability was determined by adding resazurin to cell cultures and measuring fluorescence with a plate reader. Relative cell viability was calculated by dividing the cell viability signal from a test sample by that of a non-treated control. […] Bliss Independence and Highest Single Agent models were used to determine if there is synergy, additivity or antagonism between the CK2 inhibitor and an anti-cancer drug.

[2] = tested on: U266; test: Cancer cell panel, cell viability (resazurin): multiple myeloma, U266; settings: 72 hours, labelled drug combined with Example 3
Procedure: as §1, §2

[3] = tested on: BxPC3; test: Cancer cell panel, cell viability (resazurin): Pancreatic, BxPC3; settings: 72 hours, labelled drug combined with Example 3
[4] = tested on: Caki-1; test: Cancer cell panel, cell viability (resazurin): Renal, Caki-1; settings: Caki-1 (Renal), 72 hours; labelled drug combined with Example 3
Procedure: as §1, §2

[5] = tested on: MCF7; test: Cancer cell panel, cell viability (resazurin): Breast, MCF7; settings: 72 hours, labelled drug combined with Example 3
[6] = tested on: H2122; test: Cancer cell panel, cell viability (resazurin): NSCLC, H2122; settings: 72 hours, labelled drug combined with Example 3
[7] = tested on: BT-20; test: Cancer cell panel, cell viability (resazurin): Breast, BT-20; settings: BT-20 (Breast), 72 hours; labelled drug combined with Example 3
[8] = tested on: Raji; test: Cancer cell panel, cell viability (resazurin): Burkitt's Lymphoma, Raji; settings: 72 hours, labelled drug combined with Example 3
[9] = tested on: RPMI8226; test: Cancer cell panel, cell viability (resazurin): multiple myeloma, RPMI8226; settings: 72 hours, labelled drug combined with Example 3
[10] = tested on: H1975; test: Cancer cell panel, cell viability (resazurin): NSCLC, H1975; settings: 72 hours, labelled drug combined with Example 3
[11] = tested on: BT-474; test: Cancer cell panel, cell viability (resazurin): Breast, BT-474; settings: BT-474 (Breast), 72 hours; labelled drug combined with Example 3
[12] = tested on: H23; test: Cancer cell panel, cell viability (resazurin): NSCLC, H23; settings: 72 hours, labelled drug combined with Example 3
Procedure: as §1, §2

[13] = tested on: Ramos; test: Cancer cell panel, cell viability (resazurin): Burkitt's Lymphoma, Ramos; settings: 72 hours, labelled drug combined with Example 3
[14] = tested on: Colo205; test: Cancer cell panel, cell viability (resazurin): Colon, Colo205; settings: 72 hours, labelled drug combined with Example 3
Procedure: as §1, §2

[15] = tested on: K562; test: Cancer cell panel, cell viability (resazurin): Leukemia, K562; settings: 72 hours, labelled drug combined with Example 3
[16] = tested on: A2780; test: Cancer cell panel, cell viability (resazurin): Ovarian, A2780; settings: 72 hours, labelled drug combined with Example 3
Procedure: as §1, §2

[17] = tested on: HCT116; test: Cancer cell panel, cell viability (resazurin): Colon, HCT116; settings: 72 hours, labelled drug combined with Example 3
Procedure: as §1, §2

[18] = tested on: Mia-Paca-2; test: Cancer cell panel, cell viability (resazurin): Pancreatic, Mia-Paca-2; settings: Mia-Paca-2 (Pancreatic), 72 hours; labelled drug combined with Example 3
[19] = tested on: T47D; test: Cancer cell panel, cell viability (resazurin): Breast, T47D; settings: 72 hours, labelled drug combined with Example 3
Procedure: as §1, §2

[20] = tested on: H1299; test: Cancer cell panel, cell viability (resazurin): NSCLC, H1299; settings: 72 hours, labelled drug combined with Example 3
[21] = tested on: MDA-MB-453; test: Cancer cell panel, cell viability (resazurin): Breast, MDA-MB-453; settings: MDA-MB-453 (Breast), 72 hours; labelled drug combined with Example 3
Procedure: as §1, §2

[22] = tested on: LoVo; test: Cancer cell panel, cell viability (resazurin): Colon, LoVo; settings: 72 hours, labelled drug combined with Example 3
[23] = tested on: SK-MEL-24; test: Cancer cell panel, cell viability (resazurin): Melanoma, SK-MEL-24; settings: SK-MEL-24 (Melanoma), 72 hours; labelled drug combined with Example 3
[24] = tested on: H460; test: Cancer cell panel, cell viability (resazurin): NSCLC, H460; settings: 72 hours, labelled drug combined with Example 3
[25] = tested on: ACHN; test: Cancer cell panel, cell viability (resazurin): Renal, ACHN; settings: 72 hours, labelled drug combined with Example 3
Procedure: as §1, §2

[26] = tested on: A375; test: Cancer cell panel, cell viability (resazurin): Melanoma, A375; settings: 72 hours, labelled drug combined with Example 3
[27] = tested on: Daudi; test: Cancer cell panel, cell viability (resazurin): Burkitt's Lymphoma, Daudi; settings: 72 hours, labelled drug combined with Example 3
[28] = tested on: WM-115; test: Cancer cell panel, cell viability (resazurin): Melanoma, WM-115; settings: WM-115 (Melanoma), 72 hours; labelled drug combined with Example 3
Procedure: as §1, §2

[29] = tested on: OVCAR-3; test: Cancer cell panel, cell viability (resazurin): Ovarian, OVCAR-3; settings: OVCAR-3 (Ovarian), 72 hours; labelled drug combined with Example 3
[30] = tested on: MDA-MB-231; test: Cancer cell panel, cell viability (resazurin): Breast, MDA-MB-231; settings: MDA-MB-231 (Breast), 72 hours; labelled drug combined with Example 3
Procedure: as §1, §2

[31] = tested on: Caov-3; test: Cancer cell panel, cell viability (resazurin): Ovarian, Caov-3; settings: Caov-3 (Ovarian), 72 hours; labelled drug combined with Example 3
[32] = tested on: A549; test: Cancer cell panel, cell viability (resazurin): NSCLC, A549; settings: 72 hours, labelled drug combined with Example 3
Procedure: as §1, §2

[33] = tested on: EOL-1; test: Cancer cell panel, cell viability (resazurin): Leukemia, EOL-1; settings: EOL-1 (Leukemia), 72 hours; labelled drug combined with Example 3
[34] = tested on: SkBr-3; test: Cancer cell panel, cell viability (resazurin): Breast, SkBr-3; settings: SkBr-3 (Breast), 72 hours; labelled drug combined with Example 3
[35] = tested on: HL60; test: Cancer cell panel, cell viability (resazurin): Leukemia, HL60; settings: 72 hours, labelled drug combined with Example 3
[36] = tested on: HT29; test: Cancer cell panel, cell viability (resazurin): Colon, HT29; settings: 72 hours, labelled drug combined with Example 3
[37] = tested on: MDA-MB-157; test: Cancer cell panel, cell viability (resazurin): Breast, MDA-MB-157; settings: MDA-MB-157 (Breast), 72 hours; labelled drug combined with Example 3
Procedure: as §1, §2

[38] = tested on: Panc-1; test: Cancer cell panel, cell viability (resazurin): Pancreatic, Panc-1; settings: Panc-1 (Pancreatic), 72 hours; labelled drug combined with Example 3
[39] = tested on: PC3; test: Cancer cell panel, cell viability (resazurin): Prostate, PC3; settings: 72 hours, labelled drug combined with Example 3
[40] = tested on: SKOV-3; test: Cancer cell panel, cell viability (resazurin): Ovarian, SKOV-3; settings: SKOV-3 (Ovarian), 72 hours; labelled drug combined with Example 3
Procedure: as §1, §2

[41] = tested on: DLD-1; test: Cancer cell panel, cell viability (resazurin): Colon, DLD-1; settings: DLD-1 (Colon), 72 hours; labelled drug combined with Example 3

CC(C)C[C@H](NC(=O)[C@H](Cc1ccccc1)NC(=O)c1cnccn1)B(O)O [Bortezomib, bortezomib]
synergy, additivity or antagonism of the combination of Example 3 with the anti-cancer drug [1]: + (Additive relative to each agent alone (CI = 0.9-1 by Bliss Independence Model and <0.9 by Highest Single Agent Model))
synergy, additivity or antagonism of the combination of Example 3 with the anti-cancer drug [2]: + (Additive relative to each agent alone (CI = 0.9-1 by Bliss Independence Model and <0.9 by Highest Single Agent Model))
synergy, additivity or antagonism of the combination of Example 3 with the anti-cancer drug [3]: + + + (Synergy relative to each agent alone (CI = 0.4-0.74 by Bliss Independence Model))
synergy, additivity or antagonism of the combination of Example 3 with the anti-cancer drug [4]: + (Additive relative to each agent alone (CI = 0.9-1 by Bliss Independence Model and <0.9 by Highest Single Agent Model))
synergy, additivity or antagonism of the combination of Example 3 with the anti-cancer drug [5]: − − (Antagonistic relative to each agent alone (CI = 1.2-1.49 by Highest Single Agent Model))
synergy, additivity or antagonism of the combination of Example 3 with the anti-cancer drug [6]: + (Additive relative to each agent alone (CI = 0.9-1 by Bliss Independence Model and <0.9 by Highest Single Agent Model))
synergy, additivity or antagonism of the combination of Example 3 with the anti-cancer drug [7]: + + (Slight synergy relative to each agent alone (CI = 0.75-0.9 by Bliss Independence Model))
synergy, additivity or antagonism of the combination of Example 3 with the anti-cancer drug [8]: + + (Slight synergy relative to each agent alone (CI = 0.75-0.9 by Bliss Independence Model))
synergy, additivity or antagonism of the combination of Example 3 with the anti-cancer drug [9]: + (Additive relative to each agent alone (CI = 0.9-1 by Bliss Independence Model and <0.9 by Highest Single Agent Model))
synergy, additivity or antagonism of the combination of Example 3 with the anti-cancer drug [10]: + (Additive relative to each agent alone (CI = 0.9-1 by Bliss Independence Model and <0.9 by Highest Single Agent Model))
synergy, additivity or antagonism of the combination of Example 3 with the anti-cancer drug [11]: + + (Slight synergy relative to each agent alone (CI = 0.75-0.9 by Bliss Independence Model))
synergy, additivity or antagonism of the combination of Example 3 with the anti-cancer drug [12]: + (Additive relative to each agent alone (CI = 0.9-1 by Bliss Independence Model and <0.9 by Highest Single Agent Model))
synergy, additivity or antagonism of the combination of Example 3 with the anti-cancer drug [13]: + (Additive relative to each agent alone (CI = 0.9-1 by Bliss Independence Model and <0.9 by Highest Single Agent Model))
synergy, additivity or antagonism of the combination of Example 3 with the anti-cancer drug [14]: − (Slightly antagonistic relative to each agent alone (CI = 1.1-1.2 by Highest Single Agent Model))
synergy, additivity or antagonism of the combination of Example 3 with the anti-cancer drug [15]: + (Additive relative to each agent alone (CI = 0.9-1 by Bliss Independence Model and <0.9 by Highest Single Agent Model))
synergy, additivity or antagonism of the combination of Example 3 with the anti-cancer drug [16]: + + (Slight synergy relative to each agent alone (CI = 0.75-0.9 by Bliss Independence Model))
synergy, additivity or antagonism of the combination of Example 3 with the anti-cancer drug [17]: + + (Slight synergy relative to each agent alone (CI = 0.75-0.9 by Bliss Independence Model))
synergy, additivity or antagonism of the combination of Example 3 with the anti-cancer drug [18]: + + (Slight synergy relative to each agent alone (CI = 0.75-0.9 by Bliss Independence Model))
synergy, additivity or antagonism of the combination of Example 3 with the anti-cancer drug [19]: + (Additive relative to each agent alone (CI = 0.9-1 by Bliss Independence Model and <0.9 by Highest Single Agent Model))
synergy, additivity or antagonism of the combination of Example 3 with the anti-cancer drug [20]: + (Additive relative to each agent alone (CI = 0.9-1 by Bliss Independence Model and <0.9 by Highest Single Agent Model))
synergy, additivity or antagonism of the combination of Example 3 with the anti-cancer drug [21]: + (Additive relative to each agent alone (CI = 0.9-1 by Bliss Independence Model and <0.9 by Highest Single Agent Model))
synergy, additivity or antagonism of the combination of Example 3 with the anti-cancer drug [22]: + (Additive relative to each agent alone (CI = 0.9-1 by Bliss Independence Model and <0.9 by Highest Single Agent Model))
synergy, additivity or antagonism of the combination of Example 3 with the anti-cancer drug [23]: + + + (Synergy relative to each agent alone (CI = 0.4-0.74 by Bliss Independence Model))
synergy, additivity or antagonism of the combination of Example 3 with the anti-cancer drug [24]: + + (Slight synergy relative to each agent alone (CI = 0.75-0.9 by Bliss Independence Model))
synergy, additivity or antagonism of the combination of Example 3 with the anti-cancer drug [25]: + + (Slight synergy relative to each agent alone (CI = 0.75-0.9 by Bliss Independence Model))
synergy, additivity or antagonism of the combination of Example 3 with the anti-cancer drug [26]: + (Additive relative to each agent alone (CI = 0.9-1 by Bliss Independence Model and <0.9 by Highest Single Agent Model))
synergy, additivity or antagonism of the combination of Example 3 with the anti-cancer drug [27]: + (Additive relative to each agent alone (CI = 0.9-1 by Bliss Independence Model and <0.9 by Highest Single Agent Model))
synergy, additivity or antagonism of the combination of Example 3 with the anti-cancer drug [28]: + + (Slight synergy relative to each agent alone (CI = 0.75-0.9 by Bliss Independence Model))
synergy, additivity or antagonism of the combination of Example 3 with the anti-cancer drug [29]: + (Additive relative to each agent alone (CI = 0.9-1 by Bliss Independence Model and <0.9 by Highest Single Agent Model))
synergy, additivity or antagonism of the combination of Example 3 with the anti-cancer drug [30]: + (Additive relative to each agent alone (CI = 0.9-1 by Bliss Independence Model and <0.9 by Highest Single Agent Model))
synergy, additivity or antagonism of the combination of Example 3 with the anti-cancer drug [31]: + (Additive relative to each agent alone (CI = 0.9-1 by Bliss Independence Model and <0.9 by Highest Single Agent Model))
synergy, additivity or antagonism of the combination of Example 3 with the anti-cancer drug [32]: + + + (Synergy relative to each agent alone (CI = 0.4-0.74 by Bliss Independence Model))
synergy, additivity or antagonism of the combination of Example 3 with the anti-cancer drug [33]: + + (Slight synergy relative to each agent alone (CI = 0.75-0.9 by Bliss Independence Model))
synergy, additivity or antagonism of the combination of Example 3 with the anti-cancer drug [34]: + (Additive relative to each agent alone (CI = 0.9-1 by Bliss Independence Model and <0.9 by Highest Single Agent Model))
synergy, additivity or antagonism of the combination of Example 3 with the anti-cancer drug [35]: + (Additive relative to each agent alone (CI = 0.9-1 by Bliss Independence Model and <0.9 by Highest Single Agent Model))
synergy, additivity or antagonism of the combination of Example 3 with the anti-cancer drug [36]: + (Additive relative to each agent alone (CI = 0.9-1 by Bliss Independence Model and <0.9 by Highest Single Agent Model))
synergy, additivity or antagonism of the combination of Example 3 with the anti-cancer drug [37]: + + + (Synergy relative to each agent alone (CI = 0.4-0.74 by Bliss Independence Model))
synergy, additivity or antagonism of the combination of Example 3 with the anti-cancer drug [38]: + (Additive relative to each agent alone (CI = 0.9-1 by Bliss Independence Model and <0.9 by Highest Single Agent Model))
synergy, additivity or antagonism of the combination of Example 3 with the anti-cancer drug [39]: + (Additive relative to each agent alone (CI = 0.9-1 by Bliss Independence Model and <0.9 by Highest Single Agent Model))
synergy, additivity or antagonism of the combination of Example 3 with the anti-cancer drug [40]: + + + (Synergy relative to each agent alone (CI = 0.4-0.74 by Bliss Independence Model))
synergy, additivity or antagonism of the combination of Example 3 with the anti-cancer drug [41]: + + + (Synergy relative to each agent alone (CI = 0.4-0.74 by Bliss Independence Model))
